Laboratory results: ChEMBL document CHEMBL3352667, “Anti-tumor activity of novel biisoquinoline derivatives against breast cancers” (Bioorg Med Chem Lett, 2014)
Calls of active or inactive are those of the source. The calls are words filed in the database; no cut-off is given here.

What was measured:
Assay type in all cases: functional, cell-based
MDA-MB-231 = assay: Cytotoxicity against human MDA-MB-231 cells assessed as growth inhibition after 48 hrs by methylene blue staining-based assay; conditions: for IC50: MDA-MB-231, 48 h
T47D = assay: Cytotoxicity against human T47D cells assessed as growth inhibition after 48 hrs by methylene blue staining-based assay
BT-474 = assay: Cytotoxicity against human BT474 cells assessed as growth inhibition after 48 hrs by methylene blue staining-based assay; conditions: BT-474, 48 h
MCF7 = assay: Cytotoxicity against human MCF7 cells assessed as growth inhibition after 48 hrs by methylene blue staining-based assay; conditions: MCF7, 48 h
MDA-MB-468 = assay: Cytotoxicity against human MDA-MB-468 cells assessed as growth inhibition after 48 hrs by methylene blue staining-based assay; conditions: MDA-MB-468, 48 h

Structure (SMILES)	IC50 (MDA-MB-231)	IC50 (T47D)	IC50 (BT-474)	IC50 (MCF7)	IC50 (MDA-MB-468)	Activity (MDA-MB-231)
COc1ccc2c(c1OC)CCn1c[n+]3c(c1-2)-c1ccc(OC)c(OC)c1CC3	18.2 µM	13.5 µM	0.7 µM	7.9 µM	2.1 µM	–
COc1cc2c(c(OC)c1OC)CCn1c[n+]3c(c1-2)-c1cc(OC)c(OC)c(OC)c1CC3	–	–	–	–	–	inactive
COc1ccc(CCNC(=O)C(=O)NCCc2ccc(OC)c(OC)c2)cc1OC	45 µM	–	–	–	–	–
COc1cc2c(cc1OC)C(C1=NCCc3cc(OC)c(OC)cc31)=NCC2	–	–	–	–	–	inactive
COc1ccc2c(c1)CCn1c[n+]3c(c1-2)-c1ccc(OC)cc1CC3	3.9 µM	1 µM	0.3 µM	1.3 µM	1.8 µM	–
COc1ccc2c(c1OC)C(=O)O[C@@H]2[C@H]1c2c(cc3c(c2OC)OCO3)CCN1C [NOSCAPINE]	64 µM	–	–	57 µM	–	–
COc1cc2c(cc1OC)-c1c3[n+](cn1CC2)CCc1cc(OC)c(OC)cc1-3	19 µM	34 µM	3.1 µM	35 µM	2.6 µM	–
